Among the data in patent publication US11254663B2 (BRISTOL-MYERS SQUIBB COMPANY, priority 2019, dated 2022) are EC50 values, retold here.

The target in the test is FXR (Homo sapiens (Human), UniProt Q96RI1). Kind of test: transient human FXR/Gal4-luciferase reporter assay. Particulars: Gal4-hFXR fusion construct, HEK293 reporter cells; response relative to 8 μM GW-4064. Format: cell-based. In outline: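 Compound exposure ran overnight at 37 °C and activity was measured as luminescence with Steady-Glo reagent. The cells were a HEK293 line stably expressing firefly luciferase under five Gal4 response elements. They were transiently transfected, one night beforehand, with a plasmid encoding Gal4 DNA-binding domain fused to the human FXR ligand-binding domain.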
FXR, sequence (Q96RI1 262-486): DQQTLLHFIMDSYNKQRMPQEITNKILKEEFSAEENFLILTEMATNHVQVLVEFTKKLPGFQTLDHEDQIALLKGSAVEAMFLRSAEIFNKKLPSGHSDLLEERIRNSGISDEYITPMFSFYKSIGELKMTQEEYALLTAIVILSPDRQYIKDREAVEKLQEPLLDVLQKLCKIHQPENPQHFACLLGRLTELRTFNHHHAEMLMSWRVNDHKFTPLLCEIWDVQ
In general terms: A reporter such as luciferase makes a cellular process visible.
Broadly, the EC50 is the midpoint of the concentration-response curve. A lower EC50 goes with an effect from little substance. `CCOc1ccc(-c2cccc(N(CC34CCC(c5nc(C(C)(C)C)no5)(CC3)CC4)C(=O)C34CC(F)(C3)C4)c2)cn1` [Example 360, N-((4-(3-(tert-butyl)-1,2,4-oxadiazol-5-yl)bicyclo[2.2.2]octan-1-yl)methyl)-N-(3-(6-ethoxypyridin-3-yl)phenyl)-3-fluorobicyclo[1.1.1]pentane-1-carboxamide] displayed a half-maximal effective concentration (EC50) of 147 nM.

In the case of `CC(C)(C)c1noc(C23CCC(CN(C(=O)C45CC(F)(C4)C5)c4cccc(-c5ccc(NS(C)(=O)=O)cc5)c4)(CC2)CC3)n1` [Example 361, N-((4-(3-(tert-butyl)-1,2,4-oxadiazol-5-yl)bicyclo[2.2.2]octan-1-yl)methyl)-3-fluoro-N-(4′-(methylsulfonamido)-[1,1′-biphenyl]-3-yl)bicyclo[1.1.1]pentane-1-carboxamide], the EC50 was 843 nM.

`Cc1nc2ccc(-c3cccc(N(CC45CCC(c6nc(C(C)(C)C)no6)(CC4)CC5)C(=O)C45CC(F)(C4)C5)c3)cc2s1` [Example 362, N-((4-(3-(tert-butyl)-1,2,4-oxadiazol-5-yl)bicyclo[2.2.2]octan-1-yl)methyl)-3-fluoro-N-(3-(2-methylbenzo[d]thiazol-6-yl)phenyl)bicyclo[1.1.1]pentane-1-carboxamide] showed an EC50 of 204 nM.

`COc1ncc(-c2cccc(N(CC34CCC(c5nc(C(C)(C)C)no5)(CC3)CC4)C(=O)C34CC(F)(C3)C4)c2)cn1` [Example 363, N-((4-(3-(tert-butyl)-1,2,4-oxadiazol-5-yl)bicyclo[2.2.2]octan-1-yl)methyl)-3-fluoro-N-(3-(2-methoxypyrimidin-5-yl)phenyl)bicyclo[1.1.1]pentane-1-carboxamide] gave a 50% effective concentration (EC50) of 70 nM.

With `CC(C)(C)c1noc(C23CCC(CN(C(=O)C45CC(F)(C4)C5)c4cccc(-c5ccc(NS(C)(=O)=O)nc5)c4)(CC2)CC3)n1` [Example 364, N-((4-(3-(tert-butyl)-1,2,4-oxadiazol-5-yl)bicyclo[2.2.2]octan-1-yl)methyl)-3-fluoro-N-(3-(6-(methylsulfonamido)pyridin-3-yl)phenyl)bicyclo[1.1.1]pentane-1-carboxamide], the EC50 came to 509 nM.

`Cc1nc2ncc(-c3cccc(N(CC45CCC(c6nc(C(C)(C)C)no6)(CC4)CC5)C(=O)C45CC(F)(C4)C5)c3)cc2s1` [Example 365, N-((4-(3-(tert-butyl)-1,2,4-oxadiazol-5-yl)bicyclo[2.2.2]octan-1-yl)methyl)-3-fluoro-N-(3-(2-methylthiazolo[4,5-b]pyridin-6-yl)phenyl)bicyclo[1.1.1]pentane-1-carboxamide] returned an EC50 of 84 nM.

Regarding `CC(C)(C)c1noc(C23CCC(CN(C(=O)C45CC(F)(C4)C5)c4cccc(-c5cnc(C(F)(F)F)nc5)c4)(CC2)CC3)n1` [Example 366, N-((4-(3-(tert-butyl)-1,2,4-oxadiazol-5-yl)bicyclo[2.2.2]octan-1-yl)methyl)-3-fluoro-N-(3-(2-(trifluoromethyl)pyrimidin-5-yl)phenyl)bicyclo[1.1.1]pentane-1-carboxamide], a half-maximal response (EC50) required 454 nM.

Compound `CC(C)(C)c1noc(C23CCC(CN(C(=O)C45CC(F)(C4)C5)c4cccc(-c5cnc(NS(C)(=O)=O)nc5)c4)(CC2)CC3)n1` [Example 367, N-((4-(3-(tert-butyl)-1,2,4-oxadiazol-5-yl)bicyclo[2.2.2]octan-1-yl)methyl)-3-fluoro-N-(3-(2-(methylsulfonamido)pyrimidin-5-yl)phenyl)bicyclo[1.1.1]pentane-1-carboxamide] displayed an EC50 of 645 nM.

Compound `CC(C)(C)c1noc(C23CCC(CN(C(=O)C45CC(F)(C4)C5)c4cccc(-c5ccc(OC(F)F)cc5)c4)(CC2)CC3)n1` [Example 368, N-((4-(3-(tert-butyl)-1,2,4-oxadiazol-5-yl)bicyclo[2.2.2]octan-1-yl)methyl)-N-(4′-(difluoromethoxy)-[1,1′-biphenyl]-3-yl)-3-fluorobicyclo[1.1.1]pentane-1-carboxamide] showed an EC50 of 135 nM.

Take `COc1cnc(-c2cccc(N(CC34CCC(c5nc(C(C)(C)C)no5)(CC3)CC4)C(=O)C34CC(F)(C3)C4)c2)nc1` [Example 369, N-((4-(3-(tert-butyl)-1,2,4-oxadiazol-5-yl)bicyclo[2.2.2]octan-1-yl)methyl)-3-fluoro-N-(3-(5-methoxypyrimidin-2-yl)phenyl)bicyclo[1.1.1]pentane-1-carboxamide]: the half-maximal effective concentration (EC50) was determined as 68 nM.

For `CCOc1cnc(-c2cccc(N(CC34CCC(c5nc(C(C)(C)C)no5)(CC3)CC4)C(=O)C34CC(F)(C3)C4)c2)nc1` [Example 370, N-((4-(3-(tert-butyl)-1,2,4-oxadiazol-5-yl)bicyclo[2.2.2]octan-1-yl)methyl)-N-(3-(5-ethoxypyrimidin-2-yl)phenyl)-3-fluorobicyclo[1.1.1]pentane-1-carboxamide], a half-maximal response (EC50) required 121 nM.

`CC(C)(C)c1noc(C23CCC(CN(C(=O)C45CC(F)(C4)C5)c4cccc(-c5ncc(OC(F)F)cn5)c4)(CC2)CC3)n1` [Example 371, N-((4-(3-(tert-butyl)-1,2,4-oxadiazol-5-yl)bicyclo[2.2.2]octan-1-yl)methyl)-N-(3-(5-(difluoromethoxy)pyrimidin-2-yl)phenyl)-3-fluorobicyclo[1.1.1]pentane-1-carboxamide] had a concentration giving a half-maximal response (EC50) of 45 nM.

`CC(C)(C)c1noc(C23CCC(CN(C(=O)C45CC(F)(C4)C5)c4cccc(-c5ccc(NS(=O)(=O)C(F)(F)F)cc5)c4)(CC2)CC3)n1` [Example 372, N-((4-(3-(tert-butyl)-1,2,4-oxadiazol-5-yl)bicyclo[2.2.2]octan-1-yl)methyl)-3-fluoro-N-(4′-((trifluoromethyl)sulfonamido)-[1,1′-biphenyl]-3-yl)bicyclo[1.1.1]pentane-1-carboxamide] showed an EC50 of 131 nM.

For `CC(C)(C)c1noc(C23CCC(CN(C(=O)C45CC(F)(C4)C5)c4cccc(-c5ccc(OC(F)F)cn5)c4)(CC2)CC3)n1` [Example 373, N-((4-(3-(tert-butyl)-1,2,4-oxadiazol-5-yl)bicyclo[2.2.2]octan-1-yl)methyl)-N-(3-(5-(difluoromethoxy)pyridin-2-yl)phenyl)-3-fluorobicyclo[1.1.1]pentane-1-carboxamide], a half-maximal effect (EC50) was put at 88 nM.

`CCOc1ncc(-c2cccc(N(CC34CCC(c5nc(C(C)C)no5)(CC3)CC4)C(=O)C34CC(F)(C3)C4)c2)cn1` [Example 374, N-(3-(2-ethoxypyrimidin-5-yl)phenyl)-3-fluoro-N-((4-(3-isopropyl-1,2,4-oxadiazol-5-yl)bicyclo[2.2.2]octan-1-yl)methyl)bicyclo[1.1.1]pentane-1-carboxamide] had a 50% effective concentration (EC50) of 44 nM.

Regarding `CCOc1ccc(-c2cccc(N(CC34CCC(c5nc(C(C)C)no5)(CC3)CC4)C(=O)C34CC(F)(C3)C4)c2)cc1` [Example 375, N-(4′-ethoxy-[1,1′-biphenyl]-3-yl)-3-fluoro-N-((4-(3-isopropyl-1,2,4-oxadiazol-5-yl)bicyclo[2.2.2]octan-1-yl)methyl)bicyclo[1.1.1]pentane-1-carboxamide], the concentration for a half-maximal effect (EC50) was determined as 61 nM.

For the compound `CC(C)c1noc(C23CCC(CN(C(=O)C45CC(F)(C4)C5)c4cccc(-c5ccc(NS(C)(=O)=O)cc5)c4)(CC2)CC3)n1` [Example 376, 3-fluoro-N-((4-(3-isopropyl-1,2,4-oxadiazol-5-yl)bicyclo[2.2.2]octan-1-yl)methyl)-N-(4′-(methylsulfonamido)-[1,1′-biphenyl]-3-yl)bicyclo[1.1.1]pentane-1-carboxamide], the half-maximal effective concentration (EC50) stood at 32 nM.
